As a reminder, the Ki is the equilibrium dissociation constant of an inhibitor or competing ligand from its target. The low end stands for higher affinity, the high end for lower affinity.

Assay [1] has as its target Mu-type opioid receptor (Mus musculus) (UniProt P42866). Briefly: Ratio of binding affinity against mu to that of delta opioid receptor.
In another assay the target is Mu-type opioid receptor (Mus musculus, UniProt P42866). As to the kind of experiment: Binding affinity against mu opioid receptor […].
Sequence of Mu-type opioid receptor (P42866 whole entry): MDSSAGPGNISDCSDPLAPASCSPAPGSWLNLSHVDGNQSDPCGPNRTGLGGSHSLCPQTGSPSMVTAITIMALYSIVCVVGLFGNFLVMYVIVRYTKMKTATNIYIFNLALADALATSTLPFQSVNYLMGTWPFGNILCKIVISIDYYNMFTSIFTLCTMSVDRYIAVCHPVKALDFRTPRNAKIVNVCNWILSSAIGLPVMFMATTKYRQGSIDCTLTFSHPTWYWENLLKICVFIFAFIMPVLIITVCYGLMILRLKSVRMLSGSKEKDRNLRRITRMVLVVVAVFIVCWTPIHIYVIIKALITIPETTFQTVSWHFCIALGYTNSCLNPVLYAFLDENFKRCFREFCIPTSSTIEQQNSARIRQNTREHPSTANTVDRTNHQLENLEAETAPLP
The nature of assay [2]: Binding affinity against delta opioid receptor […]. Also noted: species or system Mus musculus.

Sequence of Mu-type opioid receptor (Mus musculus) (P42866 whole entry): as above

On to `CCNC(=O)c1ccc(C(=C2CC3CCC(C2)N3Cc2ccoc2)c2cccnc2)cc1`, for which the Ratio in assay [1] is 3. The Ki at Mu-type opioid receptor was 1.2 nM; in assay [2], 0.4 nM.

Turning to `CCNC(=O)c1ccc(C(=C2CC3CCC(C2)N3Cc2cccs2)c2ccccn2)cc1`, the Ratio in assay [1] worked out at 1.6. Besides, the inhibition constant Ki at Mu-type opioid receptor is 6 nM; in assay [2], 3.8 nM.

Consider `CCNC(=O)c1ccc(C(=C2CC3CCC(C2)N3Cc2ccoc2)c2cccc(-c3nn[nH]n3)c2)cc1`, for which, in assay [1], the Ratio is 2100. Besides, the inhibition constant Ki in assay [2] was 0.73 nM.

Take `CCNC(=O)c1ccc(C(=C2CC3CCC(C2)N3Cc2ccoc2)c2ccc(S(N)(=O)=O)cc2)cc1`: the Ratio in assay [1] stood at 3.1. Besides, the values for the inhibition constant Ki (on Mu-type opioid receptor; in assay [2]) were 50 nM and 16 nM, respectively.

Regarding `CCNC(=O)c1ccc(C=C2CC3CCC(C2)N3Cc2ccoc2)cc1`, in assay [1], the Ratio was 1.2. The Ki at Mu-type opioid receptor was 110 nM; in assay [2], 93 nM.

Regarding `CCNC(=O)c1ccc(C(=C2CC3CCC(C2)N3Cc2ccccn2)c2cccc(NC(C)=O)c2)cc1`, the Ratio in assay [1] was determined as 0.13. Besides, the Ki was 3.6 nM at Mu-type opioid receptor and 28 nM in assay [2].

`CCNC(=O)c1ccc(C(=C2CC3CCC(C2)N3Cc2ccoc2)c2cccc(NC(C)=O)c2)cc1`: in assay [1], the Ratio turned out to be 2.4. In addition, the Ki on Mu-type opioid receptor was 1.2 nM; in assay [2], 0.5 nM.

Consider `CCNC(=O)c1ccc(C(=C2CC3CCC(C2)N3Cc2ccoc2)c2c(C)noc2C)cc1`, for which the Ratio in assay [1] amounted to 1.5. In addition, the inhibition constant (Ki) turned out to be 1.8 nM at Mu-type opioid receptor and 1.2 nM in assay [2].

Consider `C=C(C)CCN1C2CCC1CC(=C(c1ccc(C(=O)NCC)cc1)c1cccc(C(C)=O)c1)C2`, for which the Ratio in assay [1] is 1.1. Also, the inhibition constant (Ki) on Mu-type opioid receptor came out at 1.9 nM; in assay [2] it was 1.8 nM.

With `CCNC(=O)c1ccc(C(=C2CC3CCC(C2)N3Cc2ccoc2)c2cccc(C(=O)O)c2)cc1`, the Ratio in assay [1] worked out at 8. The affinity in assay [2] corresponds to a Ki of 3.5 nM.

As for `CCN(CC)C(=O)c1ccc(C(=C2CC3CCC(C2)N3CCc2ccccc2)c2ccccc2)cc1`, the Ratio in assay [1] was 0.0055. Further, the results for the Ki (at Mu-type opioid receptor; in assay [2]) were 0.26 nM and 47 nM, respectively.

`CCNC(=O)c1ccc(C(=C2CC3CCC(C2)N3Cc2ccoc2)c2ccc(O)c(OC)c2)cc1`: the Ratio in assay [1] was 2. Moreover, the results for the Ki (on Mu-type opioid receptor; in assay [2]) were 0.59 nM and 0.3 nM, respectively.

On to `CCNC(=O)c1ccc(C(=C2CC3CCC(C2)N3Cc2ccoc2)c2ccc(C(C)=O)cc2)cc1`, for which the Ratio in assay [1] was 5.2. The results for the Ki (at Mu-type opioid receptor; in assay [2]) were 1.7 nM and 0.33 nM, respectively.

Regarding `CCNC(=O)c1ccc(C(=C2CC3CCC(C2)N3Cc2ccsc2)c2cnccn2)cc1`, the Ratio in assay [1] was 0.15. The Ki on Mu-type opioid receptor was 2.5 nM; in assay [2], 17 nM.

With `CCNC(=O)c1ccc(C(=C2CC3CCC(C2)N3Cc2ccoc2)c2ccc(C(N)=O)cc2)cc1`, in assay [1], the Ratio came out at 0.33. Further, the values for the Ki (at Mu-type opioid receptor; in assay [2]) were 1.3 nM and 3.9 nM, respectively.

Turning to `CCNC(=O)c1ccc(C(=C2CC3CCC(C2)N3Cc2ccoc2)c2cnccn2)cc1`, in assay [1], the Ratio is 2.9. For the same compound, the Ki was found to be 9.9 nM on Mu-type opioid receptor and 3.4 nM in assay [2].

As for `CCNC(=O)c1ccc(/C(=C2\C[C@H]3CC[C@@H](C2)N3Cc2ccsc2)c2cccc(-c3nn[nH]n3)c2)cc1`, the Ki turned out to be 12 nM on Mu-type opioid receptor and 0.7 nM in assay [2].

Turning to `CCNC(=O)c1ccc(/C(=C2/C[C@H]3CC[C@@H](C2)N3Cc2ccsc2)c2cccc(-c3nn[nH]n3)c2)cc1`, the inhibition constant (Ki) on Mu-type opioid receptor stood at 3100 nM; in assay [2], 31 nM.

For `CCNC(=O)c1ccc(C(=C2CC3CCC(C2)N3Cc2ccoc2)c2cccc(F)c2)cc1`, the Ratio in assay [1] is 9.3. The figures for the inhibition constant Ki (on Mu-type opioid receptor; in assay [2]) were 3.7 nM and 0.4 nM, respectively.

Turning to `CCNC(=O)c1ccc(C(Br)=C2CC3CCC(C2)N3Cc2ccoc2)cc1`, the Ratio in assay [1] turned out to be 2.4. In addition, the Ki turned out to be 1.9 nM at Mu-type opioid receptor and 0.8 nM in assay [2].

In the case of `CCNC(=O)c1ccc(/C(=C2/C[C@H]3CC[C@@H](C2)N3Cc2ccsc2)c2ccc(CO)cc2)cc1`, the figures for the Ki (on Mu-type opioid receptor; in assay [2]) were 80 nM and 17 nM, respectively.

In the case of `CCNC(=O)c1ccc(C(=C2CC3CCC(C2)N3Cc2ccoc2)c2c(C)cccc2C)cc1`, the Ratio in assay [1] amounted to 1.1. In addition, the Ki stood at 1.4 nM at Mu-type opioid receptor and 1.3 nM in assay [2].

As for `CCNC(=O)c1ccc(C(=C2CC3CCC(C2)N3Cc2ccoc2)c2ccccn2)cc1`, in assay [1], the Ratio turned out to be 4.5. For the same compound, the Ki worked out at 45 nM at Mu-type opioid receptor and 10 nM in assay [2].

Take `CCNC(=O)c1ccc(C(=C2CC3CCC(C2)N3Cc2ccoc2)c2cncnc2)cc1`: the Ratio in assay [1] was 3. The inhibition constant (Ki) on Mu-type opioid receptor is 6.9 nM; in assay [2], 2.3 nM.

For the compound `CCNC(=O)c1ccc(C(=C2CC3CCC(C2)N3Cc2ccoc2)c2ccncc2)cc1`, the Ratio in assay [1] is 0.37. Further, the figures for the inhibitory constant (Ki) (on Mu-type opioid receptor; in assay [2]) were 2.2 nM and 6 nM, respectively.

With `CCNC(=O)c1ccc(C(=C2CC3CCC(C2)N3Cc2ccoc2)c2ccc(F)cc2)cc1`, the Ratio in assay [1] is 1.2. The results for the inhibition constant Ki (on Mu-type opioid receptor; in assay [2]) were 1.7 nM and 1.4 nM, respectively.

Turning to `C=C(C)CCN1[C@@H]2CC[C@H]1C/C(=C(\c1ccc(C(=O)NCC)cc1)c1cccc(C(=O)O)c1)C2`, the results for the Ki (on Mu-type opioid receptor; in assay [2]) were 24 nM and 30 nM, respectively.

For the compound `CCNC(=O)c1ccc(C(=C2CC3CCC(C2)N3Cc2ccoc2)c2cc(C(=O)O)cc([N+](=O)[O-])c2)cc1`, the Ratio in assay [1] came out at 13. Moreover, the figures for the Ki (at Mu-type opioid receptor; in assay [2]) were 12 nM and 0.94 nM, respectively.

`CCNC(=O)c1ccc(C(=C2CC3CCC(C2)N3Cc2ccoc2)c2cc(N)cc(C(=O)O)c2)cc1`: the Ratio in assay [1] turned out to be 160. Moreover, the values for the Ki (on Mu-type opioid receptor; in assay [2]) were 9100 nM and 56 nM, respectively.

With `CCNC(=O)c1ccc(C(=C2CC3CCC(C2)N3Cc2ccoc2)c2ccc(C(=O)O)cc2)cc1`, the Ratio in assay [1] was found to be 2.3. Besides, the values for the inhibition constant (Ki) (at Mu-type opioid receptor; in assay [2]) were 12 nM and 5.3 nM, respectively.

For the compound `CCNC(=O)c1ccc(C(C#N)=C2CC3CCC(C2)N3Cc2ccoc2)cc1`, the Ratio in assay [1] amounted to 3.3. Moreover, the inhibition constant Ki on Mu-type opioid receptor is 1 nM; in assay [2] it was 0.3 nM.

Compound `CCNC(=O)c1ccc(C(=C2CC3CCC(C2)N3Cc2cnc[nH]2)c2cccc(NC(C)=O)c2)cc1` registered a Ki at Mu-type opioid receptor of 9.4 nM.

For the compound `CCNC(=O)c1ccc(C(=C2CC3CCC(C2)N3Cc2ccoc2)c2ccc(CO)cc2)cc1`, the Ratio in assay [1] is 7. Further, the inhibition constant (Ki) at Mu-type opioid receptor was 19 nM; in assay [2], 2.7 nM.

Turning to `CCNC(=O)c1ccc(C(=C2CC3CCC(C2)N3Cc2ccoc2)c2cccc(CCC(=O)O)c2)cc1`, the Ratio in assay [1] came to 3.9. Further, the inhibition constant Ki worked out at 3 nM at Mu-type opioid receptor and 0.78 nM in assay [2].

Turning to `CCNC(=O)c1ccc(C(=C2CC3CCC(C2)N3Cc2ccoc2)c2ccc(N(C)C)cc2)cc1`, the Ratio in assay [1] stood at 5.9. The figures for the Ki (on Mu-type opioid receptor; in assay [2]) were 51 nM and 8.7 nM, respectively.

On to `CCNC(=O)c1ccc(C(=C2CC3CCC(C2)N3Cc2cccc(C(=O)O)c2)c2ccccc2)cc1`, for which the Ratio in assay [1] stood at 1.7. Besides, the inhibition constant Ki at Mu-type opioid receptor was found to be 480 nM; in assay [2] it was 280 nM.

In the case of `CCNC(=O)c1ccc(C(=C2CC3CCC(C2)N3Cc2ccoc2)c2ccc(S(C)(=O)=O)cc2)cc1`, the Ratio in assay [1] amounted to 1.6. Moreover, the Ki at Mu-type opioid receptor came to 3.1 nM; in assay [2], 2 nM.

`CCNC(=O)c1ccc(/C(Br)=C2/C[C@H]3CC[C@@H](C2)N3Cc2ccoc2)cc1`: the Ki was found to be 39 nM on Mu-type opioid receptor and 29 nM in assay [2].

On to `CCNC(=O)c1ccc(C(=C2CC3CCC(C2)N3Cc2ccoc2)c2ccc(C(=O)N(C)C)cc2)cc1`, for which the Ratio in assay [1] is 1.5. The results for the inhibitory constant (Ki) (at Mu-type opioid receptor; in assay [2]) were 6.7 nM and 4.6 nM, respectively.

In the case of `CCNC(=O)c1ccc(/C(C#N)=C2\C[C@H]3CC[C@@H](C2)N3Cc2ccoc2)cc1`, the Ki at Mu-type opioid receptor is 2.6 nM; in assay [2] it was 0.9 nM.

`CCNC(=O)c1ccc(C(=C2CC3CCC(C2)N3Cc2ccoc2)c2ccc3c(c2)OCO3)cc1`: in assay [1], the Ratio came out at 1. Besides, at Mu-type opioid receptor, the inhibitory constant (Ki) came out at 1.1 nM.

For `CCNC(=O)c1ccc(C(=C2CC3CCC(C2)N3Cc2ccsc2)c2ccc3c(c2)OCO3)cc1`, the Ratio in assay [1] is 0.42. The inhibition constant Ki on Mu-type opioid receptor stood at 1.3 nM; in assay [2] it was 3.1 nM.

With `CCNC(=O)c1ccc(/C(=C2\C[C@H]3CC[C@@H](C2)N3Cc2ccsc2)c2ccc(CO)cc2)cc1`, the inhibition constant (Ki) was 17 nM on Mu-type opioid receptor and 2 nM in assay [2].

Take `CCNC(=O)c1ccc(C(=C2CC3CCC(C2)N3Cc2ccoc2)c2cccc(CO)c2)cc1`: in assay [1], the Ratio stood at 5.4. Moreover, the Ki on Mu-type opioid receptor is 0.81 nM; in assay [2], 0.15 nM.

For `CCNC(=O)c1ccc(C(=C2CC3CCC(C2)N3Cc2c[nH]cn2)c2cccc(NC(C)=O)c2)cc1`, in assay [1], the Ratio is 0.5. In assay [2], this compound had a Ki of 19 nM.

`CCNC(=O)c1ccc(/C(C#N)=C2/C[C@H]3CC[C@@H](C2)N3Cc2ccoc2)cc1`: the inhibitory constant (Ki) at Mu-type opioid receptor stood at 2.3 nM; in assay [2], 1.1 nM.

With `CCNC(=O)c1ccc(/C(=C2/C[C@H]3CC[C@@H](C2)N3Cc2ccccn2)c2ccc(C(=O)N(C)C)cc2)cc1`, the values for the inhibition constant Ki (at Mu-type opioid receptor; in assay [2]) were 100 nM and 0.5 nM, respectively.

As to `C=C(C)CCN1[C@@H]2CC[C@H]1C/C(=C(/c1ccc(C(=O)NCC)cc1)c1cccc(C(=O)O)c1)C2`, the Ki at Mu-type opioid receptor is 58 nM; in assay [2], 2.2 nM.

Take `CCNC(=O)c1ccc(C(=C2CC3CCC(C2)N3Cc2cccnc2)c2ccccc2)cc1`: the Ratio in assay [1] turned out to be 0.87. In assay [2], the affinity corresponds to a Ki of 71 nM.

Take `C=C(C)CCN1[C@@H]2CC[C@H]1C/C(=C(\c1ccc(C(=O)NCC)cc1)c1cccc(C(C)=O)c1)C2`: the values for the Ki (at Mu-type opioid receptor; in assay [2]) were 680 nM and 28 nM, respectively.

Regarding `CCNC(=O)c1ccc(/C(=C2\C[C@H]3CC[C@@H](C2)N3Cc2ccccn2)c2ccc(C(=O)N(C)C)cc2)cc1`, the Ki at Mu-type opioid receptor stood at 14 nM; in assay [2] it was 0.2 nM.

With `CCNC(=O)c1ccc(/C(Br)=C2\C[C@H]3CC[C@@H](C2)N3Cc2ccoc2)cc1`, the Ki came out at 0.2 nM on Mu-type opioid receptor and 0.3 nM in assay [2].

Take `C=C(C)CCN1[C@@H]2CC[C@H]1C/C(=C(/c1ccc(C(=O)NCC)cc1)c1cccc(C(C)=O)c1)C2`: the figures for the inhibition constant (Ki) (on Mu-type opioid receptor; in assay [2]) were 2.8 nM and 1.5 nM, respectively.
